Values of other authors, collected in patent US20070243563A1, “Aflatoxin-albumin adduct measurement and the uses thereof” (priority 2000, published 2007).

Experiments:
rats = conditions: rat, in vivo

Aflatoxin B1 [AFB1]
IARC carcinogen classification (humans): Group 1 carcinogens | TD50 (rats): 9.3×10^−4 mg/kg per day | carcinogenic potency relative to benzo(a)pyrene (rats): 1000 times
